Measured values reported in patent US6737383B1, “Herbicidal oxadiazolidines” (priority 1999, dated 2004).

How the values were obtained:
bedstraw = test: Test B pre/postemergence bedstraw; format: in vivo, Galium aparine
Outline: (§1)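 Herbicidal effect was estimated by eye on a ten-point control scale after plants spent twelve to sixteen days in a greenhouse following soil or foliar treatment. Foliar sprays targeted plants at one to four leaves; all doses were formulated in a non-phytotoxic solvent with surfactant.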

blackgrass = test: Test B pre/postemergence blackgrass; format: in vivo, Alopecurus myosuroides
Outline: as §1

surinam grass = test: Test B pre/postemergence surinam grass; format: in vivo, Brachiaria decumbens
Outline: as §1

cocklebur = test: Test B pre/postemergence cocklebur; format: in vivo, Xanthium strumarium
Outline: as §1

corn = test: Test B pre/postemergence corn; format: in vivo, Zea mays
Outline: as §1

crabgrass = test: Test B pre/postemergence crabgrass; format: in vivo, Digitaria sanguinalis
Outline: as §1

giant foxtail = test: Test B pre/postemergence giant foxtail; format: in vivo, Setaria faberii
Outline: as §1

morningglory = test: Test B pre/postemergence morningglory; format: in vivo, Ipomoea hederacea
Outline: as §1

pigweed = test: Test B pre/postemergence pigweed; format: in vivo, Amaranthus retroflexus
Outline: as §1

rape = test: Test B pre/postemergence rape; format: in vivo, Brassica napus
Outline: as §1

soybean = test: Test B pre/postemergence soybean; format: in vivo, Glycine max
Outline: as §1

sugar beet = test: Test B pre/postemergence sugar beet; format: in vivo, Beta vulgaris
Outline: as §1

velvetleaf = test: Test B pre/postemergence velvetleaf; format: in vivo, Abutilon theophrasti
Outline: as §1

wheat = test: Test B pre/postemergence wheat; format: in vivo, Triticum aestivum
Outline: as §1

wild oat = test: Test B pre/postemergence wild oat; format: in vivo, Avena fatua
Outline: as §1

purple nutsedge = test: Test B pre/postemergence purple nutsedge; format: in vivo, Cyperus rotundus
Outline: as §1

[1] = Postemergence, Rate 62 g/ha, scale 0 to 10, 0 is no effect, 10 is complete control
[2] = Postemergence, Rate 125 g/ha, scale of 0 to 10 where 0 is no effect and 10 is complete control
[3] = Preemergence, Rate 125 g/ha, scale of 0 to 10 where 0 is no effect and 10 is complete control
[4] = Preemergence, Rate 250 g/ha, scale 0 (no effect) to 10 (complete control)
[5] = Rate 62 g/ha, Preemergence, scale 0 to 10
[6] = Rate 250 g/ha, Postemergence, scale 0 to 10, 0 is no effect, 10 is complete control
[7] = Rate 500 g/ha, Preemergence, scale 0 to 10 (0 no effect, 10 complete control)
[8] = Rate 500 g/ha, Postemergence, scale 0 to 10, 0 is no effect, 10 is complete control

`Cc1nc(C(C)n2c(=O)on(C(=O)N(c3ccccc3)C(C)C)c2=O)sc1C` (stereo not shown) [Compound 756] was tested, and the “Plant response rating, Bedstraw” value (bedstraw; [1]) was 0, the “Bedstraw plant response rating” value (bedstraw; [2]) was 0 and the “Plant response rating, Bedstraw” value (bedstraw; [3]) was 0. For the same compound, the “Bedstraw plant response rating” value (bedstraw; [4]) was 0, the “Bedstraw plant response rating” value (bedstraw; [5]) was 0 and the “Bedstraw plant response rating” value (bedstraw; [6]) was 3. The “Bedstraw plant response rating” value (bedstraw; [7]) was 0, the “Plant response rating, Blackgrass” value (blackgrass; [1]) was 0 and the “Blackgrass plant response rating” value (blackgrass; [2]) was 0. The “Plant response rating, Blackgrass” value (blackgrass; [3]) was 2, the “Blackgrass plant response rating” value (blackgrass; [4]) was 4 and the “Blackgrass plant response rating” value (blackgrass; [5]) was 0. The “Blackgrass plant response rating” value (blackgrass; [6]) was 0, the “Blackgrass plant response rating” value (blackgrass; [8]) was 3 and the “Blackgrass plant response rating” value (blackgrass; [7]) was 7. The “Plant response rating, B. signalgrass” value (surinam grass; [1]) was 0, the “B. signalgrass plant response rating” value (surinam grass; [2]) was 0 and the “B. signalgrass plant response rating” value (surinam grass; Preemergence, Rate 62 g/ha, scale of 0 to 10 where 0 is no effect and 10 is complete control) was 0. The “Plant response rating, B. signalgrass” value (surinam grass; [3]) was 0, the “B. signalgrass plant response rating” value (surinam grass; [4]) was 0 and the “B. signalgrass plant response rating” value (surinam grass; [6]) was 0. For the same compound, the “B. signalgrass plant response rating” value (surinam grass; [8]) was 2, the “B. signalgrass plant response rating” value (surinam grass; [7]) was 3 and the “Plant response rating, Cocklebur” value (cocklebur; [1]) was 0. The “Cocklebur plant response rating” value (cocklebur; [2]) was 0, the “Plant response rating, Cocklebur” value (cocklebur; [3]) was 0 and the “Cocklebur plant response rating” value (cocklebur; [4]) was 0. For the same compound, the “Cocklebur plant response rating” value (cocklebur; [5]) was 0, the “Cocklebur plant response rating” value (cocklebur; [6]) was 0 and the “Cocklebur plant response rating” value (cocklebur; [8]) was 0. For the same compound, the “Cocklebur plant response rating” value (cocklebur; [7]) was 0, the “Plant response rating, Corn” value (corn; [1]) was 0 and the “Corn plant response rating” value (corn; [2]) was 0. For the same compound, the “Plant response rating, Corn” value (corn; [3]) was 0, the “Corn plant response rating” value (corn; [4]) was 0 and the “Corn plant response rating” value (corn; [5]) was 0. The “Corn plant response rating” value (corn; [6]) was 0, the “Corn plant response rating” value (corn; [8]) was 0 and the “Corn plant response rating” value (corn; [7]) was 0. The “Plant response rating, Crabgrass” value (crabgrass; [1]) was 0, the “Crabgrass plant response rating” value (crabgrass; [2]) was 0 and the “Plant response rating, Crabgrass” value (crabgrass; [3]) was 9. For the same compound, the “Crabgrass plant response rating” value (crabgrass; [4]) was 9, the “Crabgrass plant response rating” value (crabgrass; [5]) was 4 and the “Crabgrass plant response rating” value (crabgrass; [6]) was 0. For the same compound, the “Crabgrass plant response rating” value (crabgrass; [8]) was 3, the “Crabgrass plant response rating” value (crabgrass; [7]) was 9 and the “Plant response rating, Giant foxtail” value (giant foxtail; [1]) was 0. For the same compound, the “Giant foxtail plant response rating” value (giant foxtail; [2]) was 0, the “Plant response rating, Giant foxtail” value (giant foxtail; [3]) was 9 and the “Giant foxtail plant response rating” value (giant foxtail; [4]) was 9. For the same compound, the “Giant foxtail plant response rating” value (giant foxtail; [5]) was 7, the “Giant foxtail plant response rating” value (giant foxtail; [6]) was 0 and the “Giant foxtail plant response rating” value (giant foxtail; [8]) was 0. For the same compound, the “Giant foxtail plant response rating” value (giant foxtail; [7]) was 9, the “Plant response rating, Morningglory” value (morningglory; [1]) was 4 and the “Morningglory plant response rating” value (morningglory; [2]) was 7. The “Plant response rating, Morningglory” value (morningglory; [3]) was 0, the “Morningglory plant response rating” value (morningglory; [4]) was 0 and the “Morningglory plant response rating” value (morningglory; [5]) was 0. The “Morningglory plant response rating” value (morningglory; [6]) was 10, the “Morningglory plant response rating” value (morningglory; [8]) was 10 and the “Morningglory plant response rating” value (morningglory; [7]) was 0. For the same compound, the “Plant response rating, Redroot pigweed” value (pigweed; [1]) was 0, the “Redroot pigweed plant response rating” value (pigweed; [2]) was 0 and the “Plant response rating, Redroot pigweed” value (pigweed; [3]) was 0. For the same compound, the “Redroot pigweed plant response rating” value (pigweed; [4]) was 0, the “Redroot pigweed plant response rating” value (pigweed; [5]) was 0 and the “Redroot pigweed plant response rating” value (pigweed; [6]) was 0. The “Redroot pigweed plant response rating” value (pigweed; [8]) was 3, the “Redroot pigweed plant response rating” value (pigweed; [7]) was 0 and the “Plant response rating, Rape” value (rape; [1]) was 0. For the same compound, the “Rape plant response rating” value (rape; [2]) was 0, the “Plant response rating, Rape” value (rape; [3]) was 0 and the “Rape plant response rating” value (rape; [4]) was 0. The “Rape plant response rating” value (rape; [5]) was 0, the “Rape plant response rating” value (rape; [6]) was 0 and the “Rape plant response rating” value (rape; [8]) was 3. The “Rape plant response rating” value (rape; [7]) was 0, the “Plant response rating, Soybean” value (soybean; [1]) was 2 and the “Plant response rating, Soybean” value (soybean; [3]) was 0. The “Soybean plant response rating” value (soybean; [4]) was 0, the “Soybean plant response rating” value (soybean; [5]) was 0 and the “Soybean plant response rating” value (soybean; [6]) was 2. The “Soybean plant response rating” value (soybean; [8]) was 2, the “Soybean plant response rating” value (soybean; [7]) was 0 and the “Plant response rating, Sugarbeets” value (sugar beet; [1]) was 0. For the same compound, the “Plant response rating, Sugarbeets” value (sugar beet; [3]) was 0, the “Sugarbeets plant response rating” value (sugar beet; [4]) was 0 and the “Sugarbeets plant response rating” value (sugar beet; [5]) was 0. For the same compound, the “Sugarbeets plant response rating” value (sugar beet; [6]) was 0, the “Sugarbeets plant response rating” value (sugar beet; [8]) was 0 and the “Sugarbeets plant response rating” value (sugar beet; [7]) was 0. The “Plant response rating, Velvetleaf” value (velvetleaf; [1]) was 0, the “Plant response rating, Velvetleaf” value (velvetleaf; [3]) was 0 and the “Velvetleaf plant response rating” value (velvetleaf; [4]) was 0. The “Velvetleaf plant response rating” value (velvetleaf; [5]) was 0, the “Velvetleaf plant response rating” value (velvetleaf; [6]) was 0 and the “Velvetleaf plant response rating” value (velvetleaf; [8]) was 0. For the same compound, the “Velvetleaf plant response rating” value (velvetleaf; [7]) was 0, the “Plant response rating, Wheat” value (wheat; [1]) was 0 and the “Plant response rating, Wheat” value (wheat; [3]) was 0. For the same compound, the “Wheat plant response rating” value (wheat; [4]) was 0, the “Wheat plant response rating” value (wheat; [5]) was 0 and the “Wheat plant response rating” value (wheat; [6]) was 0. The “Wheat plant response rating” value (wheat; [8]) was 0, the “Wheat plant response rating” value (wheat; [7]) was 0 and the “Plant response rating, Wild oats” value (wild oat; [1]) was 0. The “Plant response rating, Wild oats” value (wild oat; [3]) was 0, the “Wild oats plant response rating” value (wild oat; [4]) was 0 and the “Wild oats plant response rating” value (wild oat; [5]) was 0. For the same compound, the “Wild oats plant response rating” value (wild oat; [6]) was 0, the “Wild oats plant response rating” value (wild oat; [8]) was 0 and the “Wild oats plant response rating” value (wild oat; [7]) was 0. For the same compound, the “Plant response rating, Nutsedge” value (purple nutsedge; [1]) was 0, the “Nutsedge plant response rating” value (purple nutsedge; [2]) was 0 and the “Plant response rating, Nutsedge” value (purple nutsedge; [3]) was 0. For the same compound, the “Nutsedge plant response rating” value (purple nutsedge; [4]) was 0, the “Nutsedge plant response rating” value (purple nutsedge; [6]) was 0 and the “Nutsedge plant response rating” value (purple nutsedge; [8]) was 0. For the same compound, the “Nutsedge plant response rating” value (purple nutsedge; [7]) was 7.
